SMILES strings stand for the structures. Values joined by “and” are separate entries in the source; they are usually repeats but may differ in a detail not shown here. Identical values can stand only once.

The target of assay [1] is T1, human GPR119 (Homo sapiens, UniProt Q8TDV5).
T1 construct: host or cells: HEK293-CRE beta-lactamase cells
T1 sequence (Q8TDV5 1-335): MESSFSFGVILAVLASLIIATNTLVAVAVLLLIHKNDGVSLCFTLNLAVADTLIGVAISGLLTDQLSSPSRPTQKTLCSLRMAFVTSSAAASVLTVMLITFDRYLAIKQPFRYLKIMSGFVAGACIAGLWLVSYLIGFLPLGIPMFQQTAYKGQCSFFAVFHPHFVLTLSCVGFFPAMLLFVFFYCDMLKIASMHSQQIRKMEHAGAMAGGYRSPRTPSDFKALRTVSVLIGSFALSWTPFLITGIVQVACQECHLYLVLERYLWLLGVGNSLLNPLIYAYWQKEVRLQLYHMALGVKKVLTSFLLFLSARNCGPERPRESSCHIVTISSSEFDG
The assay is described as follows: cAMP functional assay (HTRF, hGPR119 HEK-CRE beta-lactamase cells). Type of assay: cell-based. The protocol: GPR119 agonist activity was also determined with a cell-based assay utilizing an HTRF (Homogeneous Time-Resolved Fluorescence) cAMP detection kit (cAMP dynamic 2 Assay Kit; Cis Bio cat #62AM4PEC) that measures cAMP levels in the cell. The method is a competitive immunoassay between native cAMP produced by the cells and the cAMP labeled with the dye d2. The tracer binding is visualized by a Mab anti-cAMP labeled with Cryptate. The specific signal (i.e. energy transfer) is inversely proportional to the concentration of cAMP in either standard or sample.
Specifically, hGPR119HEK-CRE beta-lactamase cells (Invitrogen 2.5×10^7/ml; the same cell line used in the beta-lactamase assay described above) are removed from cryopreservation and diluted in growth medium (Dulbecco's modified Eagle medium high glucose (DMEM; Gibco Cat #11995-065), 1% charcoal dextran treated fetal bovine serum (CD serum; HyClone Cat #SH30068.03), 1×MEM Nonessential amino acids (Gibco Cat #15630-080) and 25 mM HEPES pH 7.0 (Gibco Cat #15630-080)). The cell concentration was adjusted to 1.5×10^5 cells/ml and 30 mls of this suspension was added to a T-175 flask and incubated at 37 degrees Celsius in a humidified environment in 5% carbon dioxide. After 16 hours (overnight), the cells were removed from the T-175 flask (by rapping the side of the flask), centrifuged at 800×g and then re-suspended in assay medium (1×HBSS+CaCl2+MgCl2 (Gibco Cat #14025-092) and 25 mM HEPES pH 7.0 (Gibco Cat #15630-080)). The cell concentration was adjusted to 6.25×10^5 cells/ml with assay medium and 8 μl of this cell suspension (5000 cells) was added to each well of a white Greiner 384-well, low-volume assay plate (VWR cat #82051-458).
Varying concentrations of each compound to be tested were diluted in assay buffer containing 3-isobutyl-1-methylxanthin (IBMX; Sigma cat #15879) and added to the assay plate wells in a volume of 2 microL (final IBMX concentration was 400 microM and final DMSO concentration was 0.58%). Following 30 minutes incubation at room temperature, 5 microL of labeled d2 cAMP and 5 microL of anti-cAMP antibody (both diluted 1:20 in cell lysis buffer; as described in the manufacturers assay protocol) were added to each well of the assay plate. The plates were then incubated at room temperature and after 60 minutes, changes in the HTRF signal were read with an Envision 2104 multilabel plate reader using excitation of 330 nm and emissions of 615 and 665 nm. Raw data were converted to nM cAMP by interpolation from a cAMP standard curve (as described in the manufacturer's assay protocol) and EC50 determinations were made from an agonist-response curves analyzed with a curve fitting program using a 4-paramter logistic dose response equation.
For orientation: TR-FRET usually uses a lanthanide donor and a delayed reading to cut background.

The target of assay [2] is T1, human GPR119. The assay is described as follows: GPR119 radioligand binding assay ([3H]Cmpd A, membranes of HEK 293FT cells over-expressing hGPR119). Conditions: competition with 3H-Cmpd A; Ki from IC50 by Cheng-Prusoff; one line per run. The procedure:
HEK 293FT cells (Invitrogen, Carlsbad, Calif.) were grown in a shake flask in 293Freestyle medium (Invitrogen) supplemented with 50 microg/mL neomycin and 10 mM HEPES (37 C, 8% carbon dioxide, shaking). The cells were centrifuged gently (approximately 500×g, 10 minutes) and the pellet resuspended in a mixture of Dulbecco's PBS(minus Mg++/−Ca++) supplemented with 18% fetal bovine serum (Sigma Aldrich) and P1 virus such that the multiplicity of infection (MOI) was 10 and the final cell density was 1.3×10^6/ml (total volume 2.5 liters). The cells were transferred to a 5 liter Wave Bioreactor Wavebag (Wave Technologies, MA) and incubated for 4 hours at 27 degrees Celsius (17 rocks/min, 7 degrees platform angle); at the end of the incubation period, an equal volume (2.5 liters) of 293Freestyle medium supplemented with 30 mM sodium butyrate (Sigma Aldrich) was added (final concentration=15 mM), and the cells were grown for 20 hours (37 degrees Celsius, 8% CO2 [0.2 liters/min}, 25 rocks/minute, 7 degrees platform angle). Cells were harvested via centrifugation (3,000×g, 10 minutes), washed once on DPBS (minus Ca++/Mg++), resuspended in 0.25M sucrose, 25 mM HEPES, 0.5 mM EDTA, pH 7.4 and frozen at −80 degrees Celsius.
The frozen cells were thawed on ice and centrifuged at 700×g (1400 rpm) for 10 minutes at 4 degrees Celsius. The cell pellet was resuspended in 20 ml phosphate-buffered saline, and centrifuged at 1400 rpm for 10 minutes. The cell pellet was then resuspended in homogenization buffer (10 mM HEPES (Gibco #15630), pH 7.5, 1 mM EDTA (BioSolutions, #BIO260-15), 1 mM EGTA (Sigma, #E-4378), 0.01 mg/ml benzamidine (Sigma #B 6506), 0.01 mg/ml bacitracin (Sigma #B 0125), 0.005 mg/ml leupeptin (Sigma #L 8511), 0.005 mg/ml aprotinin (Sigma #A 1153)) and incubated on ice for 10 minutes. Cells were then lysed with 15 gentle strokes of a tight-fitting glass Dounce homogenizer. The homogenate was centrifuged at 1000×g (2200 rpm) for 10 minutes at 4 degrees Celsius. The supernatant was transferred into fresh centrifuge tubes on ice. The cell pellet was resuspended in homogenization buffer, and centrifuged again at 1000×g (2200 rpm) for 10 minutes at 4 degrees Celsius after which the supernatant was removed and the pellet resuspended in homogenization buffer. This process was repeated a third time, after which the supernatants were combined, Benzonase (Novagen #71206) and MgCl2 (Fluka #63020) were added to final concentrations of 1 U/ml and 6 mM, respectively, and incubated on ice for one hour. The solution was then centrifuged at 25,000×g (15000 rpm) for 20 minutes at 4 degrees Celsius, the supernatant was discarded, and the pellet was resuspended in fresh homogenization buffer (minus Benzonase and MgCl2). After repeating the 25,000×g centrifugation step, the final membrane pellet was resuspended in homogenization buffer and frozen at −80 degrees Celsius. The protein concentration was determined using the Pierce BCA protein assay kit (Pierce reagents A #23223 and B #23224).
Test compounds were serially diluted in 100% DMSO (J. T. Baker #922401). 2 microL of each dilution was added to appropriate wells of a 96-well plate (each concentration in triplicate). Unlabeled Cmpd A, at a final concentration of 10 microM, was used to determine non-specific binding.
^3H-Cmpd A was diluted in binding buffer (50 mM Tris-HCl, pH 7.5, (Sigma #T7443), 10 mM MgCl2 (Fluka 63020), 1 mM EDTA (BioSolutions #BIO260-15), 0.15% bovine serum albumin (Sigma #A7511), 0.01 mg/mL benzamidine (Sigma #B 6506), 0.01 mg/mL bacitracin (Sigma #B 0125), 0.005 mg/mL leupeptin (Sigma #L 8511), 0.005 mg/mL aprotinin (Sigma #A 1153)) to a concentration of 60 nM, and 100 microL added to all wells of 96-well plate (Nalge Nunc #267245).
Membranes expressing GPR119 were thawed and diluted to a final concentration of 20 μg/100 microL per well in Binding Buffer, and 100 microL of diluted membranes were added to each well of 96-well plate. […]

Assay [3] addresses T1, human GPR119. Put plainly: Beta-lactamase functional assay (hGPR119 HEK293-CRE beta-lactamase reporter). It counts as cell-based. The procedure:
The assay for GPR119 agonists utilizes a cell-based (hGPR119 HEK293-CRE beta-lactamase) reporter construct where agonist activation of human GPR119 is coupled to beta-lactamase production via a cyclic AMP response element (CRE). GPR119 activity is then measured utilizing a FRET-enabled beta-lactamase substrate, CCF4-AM (Live Blazer FRET-B/G Loading kit, Invitrogen cat #K1027). Specifically, hGPR119-HEK-CRE-beta-lactamase cells (Invitrogen 2.5×10^7/mL) were removed from liquid nitrogen storage, and diluted in plating medium (Dulbecco's modified Eagle medium high glucose (DMEM; Gibco Cat #11995-065), 10% heat inactivated fetal bovine serum (HIFBS; Sigma Cat #F4135), 1×MEM Nonessential amino acids (Gibco Cat #15630-080), 25 mM HEPES pH 7.0 (Gibco Cat #15630-080), 200 nM potassium clavulanate (Sigma Cat #P3494). The cell concentration was adjusted using cell plating medium and 50 microL of this cell suspension ([…]) was added into each well of a black, clear bottom, poly-d-lysine coated 384-well plate (Greiner Bio-One cat #781946) and incubated at 37 degrees Celsius in a humidified environment containing 5% carbon dioxide. After 4 hours the plating medium was removed and replaced with 40 microL of assay medium (Assay medium is plating medium without potassium clavulanate and HIFBS). Varying concentrations of each compound to be tested was then added in a volume of 10 microL (final DMSO≦0.5%) and the cells were incubated for 16 hours at 37 degrees Celsius in a humidified environment containing 5% carbon dioxide. Plates were removed from the incubator and allowed to equilibrate to room temperature for approximately 15 minutes. 10 microL of 6×CCF4/AM working dye solution (prepared according to instructions in the Live Blazer FRET-B/G Loading kit, Invitrogen cat #K1027) was added per well and incubated at room temperature for 2 hours in the dark. Fluorescence was measured on an EnVision fluorimetric plate reader, excitation 405 nm, emission 460 nm/535 nm. EC50 determinations were made from agonist-response curves analyzed with a curve fitting program using a 4-parameter logistic dose-response equation.

Where [4] appears, read: hGPR119 HEK-CRE beta-lactamase cells, HTRF cAMP, 30 minutes, one line per run, read-out: Human cAMP Functional EC50.
[5] abbreviates: percent of maximal activity relative to standard GPR119 agonist (WO2005121121) at 10 μM, one line per run, read-out: Intrinsic Activity* (%) (cAMP).

The term EC50 denotes the concentration that produces a half-maximal response. As a reminder, the Ki is a dissociation constant, usually derived from enzyme kinetics or from competition with a known ligand. Low readings indicate a stronger hold on the target, high ones a looser hold on the target. On to `Cc1c(O[C@H]2[C@@H]3COC[C@H]2CN(C(=O)OC2(C)CC2)C3)ncnc1N1Cc2cnn(C)c2C1` [Example 10, 1-Methylcyclopropyyl (9-anti)-9-{[5-methyl-6-(1-methyl-4,6-dihydropyrrolo[3,4-c]pyrazol-5(1H)-yl)pyrimidin-4-yl]oxy}-3-oxa-7-azabicyclo[3.3.1]nonane-7-carboxylate], for which the EC50 in assay [1] (setting [4]) is 239 nM and 108 nM. Besides, the Ki in assay [2] was determined as 26 nM.

As for `CC(C)OC(=O)N1CCC(Oc2cc(N3Cc4cnn(C)c4C3)ncn2)CC1` [Example 1, Isopropyl 4-{[6-(1-methyl-4,6-dihydropyrrolo[3,4-c]pyrazol-5(1H)-yl)pyrimidin-4-yl]oxy}piperidine-1-carboxylate], the EC50 in assay [1] (**the curve was extrapolated to 100% to calculate an EC50, read-out: Human cAMP Functional EC50 (nM), curve extrapolated to 100%) was 7500 nM; in assay [1] (setting [4]) it was over 10000 nM; in assay [3] (**the curve was extrapolated to 100% to calculate an EC50, read-out: Human B-lactamase Functional EC50 (nM), curve extrapolated to 100%) it was 9220 nM; in assay [3] (hGPR119 HEK293-CRE beta-lactamase cells, 16 hours incubation, one line per run, read-out: Human B-lactamase Functional EC50) it was 3850 nM. For the same molecule, the Emax in assay [1] (**the curve was extrapolated to 100% to calculate an EC50, read-out: Intrinsic Activity* (%) (cAMP), curve extrapolated to 100%) is 100%; in assay [3] (**the curve was extrapolated to 100% to calculate an EC50, read-out: Intrinsic Activity* (%) (B-lactamase), curve extrapolated to 100%), 100%; in assay [3] (percent of maximal activity relative to standard GPR119 agonist (WO2005121121) at 10 microM, one line per run, read-out: Intrinsic Activity* (%) (B-lactamase)), 116%.

In the case of `Cc1c(OC2CCN(C(=O)OC3(C)CC3)CC2)ncnc1N1Cc2cnn(C)c2C1` [Example 5, 1-Methylcyclopropyl 4-{[5-methyl-6-(1-methyl-4,6-dihydropyrrolo[3,4-c]pyrazol-5(1H)-yl)pyrimidin-4-yl]oxy}piperidine-1-carboxylate], in assay [1] (setting [4]), the EC50 was found to be 118 nM. Further, the Emax in assay [1] (setting [5]) was found to be 82%.

As to `Cc1c(O[C@H]2CCN(C(=O)OC(C)C)C[C@H]2F)ncnc1N1Cc2cnn(C)c2C1` (racemic) [Example 13, 1-Isopropyl (3,4-cis)-3-fluoro-4-{[5-methyl-6-(1-methyl-4,6-dihydropyrrolo[3,4-c]pyrazol-5(1H)-yl)pyrimidin-4-yl]oxy}piperidine-1-carboxylate], the EC50 in assay [1] (setting [4]) came out at 18 nM. The Emax in assay [1] (setting [5]) was found to be 36%.
